The subject of this test is cultured primary hippocampal neurons. The test can be described thus: Translation reporter assay: EGFP-αCaMKII 3′ UTR reporter mRNA transfected into neurons. Type of test: cell-based, rat. For orientation: Reporter assays use an easily measured gene product as a stand-in for the process of interest.

For `N#CC(=C(/N)Sc1ccccc1N)/C(C#N)=C(\N)Sc1ccccc1N` [U0126], the “Translation of EGFP-αCaMKII-A20 reporter mRNA” value is “still more strongly inhibited”.

These data come from patent US20100150839A1, “Compositions and Methods for Modulating Cognitive Function” (Massachusetts Institute of Technology, priority 2005, published 2010).
